Experimental data taken from patent US20160297768A1, “NOVEL IMIDAZOLE DERIVATIVES AND THERAPEUTIC USE THEREOF” (INDUSTRY-ACA-DEMIC COORPERATION FOUNDATION, YONSEI …, priority 2013, published 2016).

Key:
HeLa cells = test: Apoptotic activity by MTT analysis, HeLa cells; assay type: cell-based; conditions: 15 μM of the compound, mean±standard deviation; for cytotoxicity at 15 µM: Homo sapiens, HeLa, 12 h, read-out: Apoptosis (%) HeLa cells; for Apoptosis (%) HeLa cells: 12 hours
Experimental: (§1) Lung cancer cells (A549), colorectal cancer cells (HCT116), HeLa cells, liver cancer cells (HepG2), T-cell leukemia cells (Jurkat), myeloid leukemia cells (K562), breast cancer cells (MCF-7 and MDA-MB-231) and myelocytic leukemia cells ([…]) were obtained from the American Type Culture Collection (ATCC), and cultured in 10% fetal bovine serum (FBS), 50 units/mL penicillin and 50 units/mL streptomycin-added RPMI 1640 (Invitrogen). The cells were maintained in a humidified 37° C., 5% CO2 atmosphere. The anticancer activity was detected by MTT analysis. Each type of cancer cells were plated in triplicate in a 96-well microtiter plate, and cultured at 37° C. for 24 hours. The cells were treated with each of the compounds prepared above at 37° C. for 12 hours. After the culturing of the cells, 10 μL of an MTT reagent ((3-[4,5-dimethyl-2-thiazolyl]-2,5-diphenyl-2H-tetrazoliumbromide) was added to each well, and cultured for 3.5 hours. The absorbance of each sample was detected using a UV microplate reader (SpectraMax 340PC 384, Molecular Devices) at 570 nm. The detection results were measured as a mean value. The effect of each compound on apoptosis is shown in Table 1.
(§2) The A549 and HeLa cells were treated with 15 μM of the compound for 12 hours. The apoptosis was detected using MTT (mean±standard deviation).

A549 cells = test: Apoptotic activity by MTT analysis, A549 cells; assay type: cell-based; conditions: 15 μM of the compound, mean±standard deviation; for cytotoxicity at 15 µM: Homo sapiens, A549, 12 h, read-out: Apoptosis (%) A549 cells; for Apoptosis (%) A549 cells: 12 hours
Experimental: as §1, §2

NCCOCCOCCNC(=O)c1ccc(Cn2c(-c3cccc(C(F)(F)F)c3)nc(-c3ccc(Br)cc3)c2-c2ccc(Br)cc2)cc1 [Example 2, N-(2-(2-(2-aminoethoxy)ethoxy)ethyl)-4-((4,5-bis(4-bromophenyl)-2-(3-(trifluoromethyl)phenyl)-1H-imidazole-1-yl)methyl)benzamide]
cytotoxicity at 15 µM (HeLa cells): 88 ± 1.39% | cytotoxicity at 15 µM (A549 cells): 80 ± 1.16%

COc1cccc(-c2nc(-c3cccc(C(F)(F)F)c3)n(Cc3ccc(C(=O)NCCOCCOCCN)cc3)c2-c2cccc(OC)c2)c1 [Example 11, N-(2-(2-(2-aminoethoxy)ethoxy)ethyl)-4-((4,5-bis(3-methoxyphenyl)-2-(3-(trifluoromethyl)phenyl)-1H-imidazole-1-yl)methyl)benzamide]
cytotoxicity at 15 µM (HeLa cells): 87 ± 1.55% | cytotoxicity at 15 µM (A549 cells): 81 ± 1.26%

CN(C)c1ccc(-c2nc(-c3cccc(C(F)(F)F)c3)n(Cc3ccc(C(=O)NCCOCCOCCN)cc3)c2-c2ccc(N(C)C)cc2)cc1 [Example 27, N-(2-(2-(2-aminoethoxy)ethoxy)ethyl)-4-((4,5-bis(4-(dimethylamino)phenyl)-2-(3-(trifluoromethyl)phenyl)-1H-imidazole-1-yl)methyl)benzamide]
cytotoxicity at 15 µM (HeLa cells): 86 ± 0.38% | cytotoxicity at 15 µM (A549 cells): 76 ± 0.98%

Cc1ccc(-c2nc(-c3cccc(C(F)(F)F)c3)n(Cc3ccc(C(=O)NCCOCCOCCN)cc3)c2-c2ccc(C)cc2)cc1 [Example 35, N-(2-(2-(2-aminoethoxy)ethoxy)ethyl)-4-((4,5-ditolyl-2-(3-(trifluoromethyl)phenyl)-1H-imidazole-1-yl)methyl)benzamide]
cytotoxicity at 15 µM (HeLa cells): 87 ± 1.68% | cytotoxicity at 15 µM (A549 cells): 64 ± 1.36%

COc1ccc(-c2nc(-c3ccc(C(F)(F)F)cc3)n(Cc3ccc(C(=O)NCCOCCOCCN)cc3)c2-c2ccc(OC)cc2)cc1 [Example 43, N-(2-(2-(2-aminoethoxy)ethoxy)ethyl)-4-((4,5-bis(4-methoxyphenyl)-2-(4-(trifluoromethyl)phenyl)-1H-imidazole-1-yl)methyl)benzamide]
cytotoxicity at 15 µM (HeLa cells): 38 ± 0.38% | cytotoxicity at 15 µM (A549 cells): 36 ± 0.86%

COc1ccc(-c2nc(-c3ccc(C(F)(F)F)cc3C(F)(F)F)n(Cc3ccc(C(=O)NCCOCCOCCN)cc3)c2-c2ccc(OC)cc2)cc1 [Example 44, N-(2-(2-(2-aminoethoxy)ethoxy)ethyl)-4-((2-(2,4-bis(trifluoromethyl)phenyl)-4,5-bis(4-methoxyphenyl)-1H-imidazole-1-yl)methyl)benzamide]
cytotoxicity at 15 µM (HeLa cells): 31 ± 0.28% | cytotoxicity at 15 µM (A549 cells): 38 ± 0.68%

COc1ccc(-c2nc(-c3cc(C)cc(C)c3)n(Cc3ccc(C(=O)NCCOCCOCCN)cc3)c2-c2ccc(OC)cc2)cc1 [Example 45, N-(2-(2-(2-aminoethoxy)ethoxy)ethyl)-4-((2-(3,5-dimethylphenyl)-4,5-bis(4-methoxyphenyl)-1H-imidazole-1-yl)methyl)benzamide]
cytotoxicity at 15 µM (HeLa cells): 34 ± 1.61% | cytotoxicity at 15 µM (A549 cells): 37 ± 0.5%

COc1ccc(-c2nc(-c3cc(OC)cc(OC)c3)n(Cc3ccc(C(=O)NCCOCCOCCN)cc3)c2-c2ccc(OC)cc2)cc1 [Example 46, N-(2-(2-(2-aminoethoxy)ethoxy)ethyl)-4-((2-(3,5-dimethoxyphenyl)-4,5-bis(4-methoxyphenyl)-1H-imidazole-1-yl)methyl)benzamide]
cytotoxicity at 15 µM (HeLa cells): 48 ± 0.28% | cytotoxicity at 15 µM (A549 cells): 37 ± 1.34%

COC(=O)c1cc(C(=O)OC)cc(-c2nc(-c3ccc(OC)cc3)c(-c3ccc(OC)cc3)n2Cc2ccc(C(=O)NCCOCCOCCN)cc2)c1 [Example 47, Dimethyl 5-(1-(4-(2-(2-(2-aminoethoxy)ethoxy)ethylcarbamoyl)benzyl)-4,5-bis(4-methoxyphenyl)-1H-imidazole-2-yl)isophthalate]
cytotoxicity at 15 µM (HeLa cells): 40 ± 0.7% | cytotoxicity at 15 µM (A549 cells): 37 ± 0.86%

COc1ccc(-c2nc(-c3cc(OC)c(OC)c(OC)c3)n(Cc3ccc(C(=O)NCCOCCOCCN)cc3)c2-c2ccc(OC)cc2)cc1 [Example 48, N-(2-(2-(2-aminoethoxy)ethoxy)ethyl)-4-((4,5-bis(4-methoxyphenyl)-2-(3,4,5-trimethoxyphenyl)-1H-imidazole-1-yl)methyl)benzamide]
cytotoxicity at 15 µM (HeLa cells): 30 ± 0.76% | cytotoxicity at 15 µM (A549 cells): 23 ± 0.68%

NCCOCCOCCNC(=O)c1ccc(Cn2c(-c3cc(C(F)(F)F)cc(C(F)(F)F)c3)nc(-c3ccc(Cl)cc3)c2-c2ccc(Cl)cc2)cc1 [Example 49, N-(2-(2-(2-aminoethoxy)ethoxy)ethyl)-4-((2-(3,5-bis(trifluoromethyl)phenyl)-4,5-bis(4-chlorophenyl)-1H-imidazole-1-yl)methyl)benzamide]
Apoptosis (%) HeLa cells (HeLa cells): 26 ± 0.38% | Apoptosis (%) A549 cells (A549 cells): 0 ± 1.26%

COc1ccc(-c2nc(-c3cccc(C(F)(F)F)c3)n(Cc3ccc(C(=O)NCCOCCOCCN)cc3)c2-c2ccc(OC)cc2F)c(F)c1 [Example 68, N-(2-(2-(2-aminoethoxy)ethoxy)ethyl)-4-((4,5-bis(2-fluoro-4-methoxyphenyl)-2-(3-(trifluoromethyl)phenyl)-1H-imidazole-1-yl)methyl)benzamide]
cytotoxicity at 15 µM (HeLa cells): 89 ± 0.28% | cytotoxicity at 15 µM (A549 cells): 58 ± 1.48%

COC(=O)c1cc(C(=O)OC)cc(-c2nc(-c3ccc(OC)cc3)c(-c3ccc(OC)cc3)n2Cc2ccc(C(=O)NCCOCCOCCN)cc2)c1 [Example 100, Dimethyl 5-(1-(4-(2-(2-(2-aminoethoxy)ethoxy)ethylcarbamoyl)benzyl)-4,5-bis(4-methoxyphenyl)-1H-imidazole-2-yl)isophthalate]
Apoptosis (%) HeLa cells (HeLa cells): 37 ± 1.54% | Apoptosis (%) A549 cells (A549 cells): 31 ± 1.78%

COc1ccc(-c2nc(-c3cc(OC)c(OC)c(OC)c3)n(Cc3ccc(C(=O)NCCOCCOCCN)cc3)c2-c2ccc(OC)cc2)cc1 [Example 102, N-(2-(2-(2-aminoethoxy)ethoxy)ethyl)-4-((4,5-bis(4-methoxyphenyl)-2-(3,4,5-trimethoxyphenyl)-1H-imidazole-1-yl)methyl)benzamide]
Apoptosis (%) HeLa cells (HeLa cells): 29 ± 2.30% | Apoptosis (%) A549 cells (A549 cells): 25 ± 1.92%

NCCOCCOCCNC(=O)c1ccc(Cn2c(-c3cc(C(F)(F)F)cc(C(F)(F)F)c3)nc(-c3ccc4c(c3)OCO4)c2-c2ccc3c(c2)OCO3)cc1 [Example 103, N-(2-(2-(2-aminoethoxy)ethoxy)ethyl)-4-((4,5-di(benzo[d][1,3]dioxol-5-yl)-2-(3,5-bis(trifluoromethyl)phenyl)-1H-imidazole-1-yl)methyl)benzamide]
cytotoxicity at 15 µM (HeLa cells): 0% | cytotoxicity at 15 µM (A549 cells): 0%

NCCOCCOCCNC(=O)c1ccc(Cn2c(-c3cc(C(F)(F)F)cc(C(F)(F)F)c3)nc(-c3ccc4ccccc4c3)c2-c2ccc3ccccc3c2)cc1 [Example 105, N-(2-(2-(2-aminoethoxy)ethoxy)ethyl)-4-((2-(3,5-bis(trifluoromethyl)phenyl)-4,5-di(naphthalene-2-yl)-1H-imidazole-1-yl)methyl)benzamide]
cytotoxicity at 15 µM (HeLa cells): 49 ± 0.41% | cytotoxicity at 15 µM (A549 cells): 39 ± 0.48%

NCCOCCOCCNC(=O)c1ccc(Cn2c(-c3cc(C(F)(F)F)cc(C(F)(F)F)c3)nc(-c3ccc4ncccc4c3)c2-c2ccc3ncccc3c2)cc1 [Example 106, N-(2-(2-(2-aminoethoxy)ethoxy)ethyl)-4-((2-(3,5-bis(trifluoromethyl)phenyl)-4,5-di(quinoline-6-yl)-1H-imidazole-1-yl)methyl)benzamide]
cytotoxicity at 15 µM (HeLa cells): 42 ± 0.76% | cytotoxicity at 15 µM (A549 cells): 38 ± 1.28%

COc1ccc(-c2nc(-c3cc(O)cc(O)c3)n(Cc3ccc(C(N)=O)cc3)c2-c2ccc(OC)cc2)cc1 [Example 107, 4-((2-(3,5-dihydroxyphenyl)-4,5-bis(4-methoxyphenyl)-1H-imidazole-1-yl)methyl)benzamide]
cytotoxicity at 15 µM (HeLa cells): 0% | cytotoxicity at 15 µM (A549 cells): 16 ± 0.3%

COc1ccc(-c2nc(-c3cc(C#N)cc(C#N)c3)n(Cc3ccc(C(N)=O)cc3)c2-c2ccc(OC)cc2)cc1 [Example 108, 4-((2-(3,5-dicyanophenyl)-4,5-bis(4-methoxyphenyl)-1H-imidazole-1-yl)methyl)benzamide]
cytotoxicity at 15 µM (HeLa cells): 12 ± 1.26% | cytotoxicity at 15 µM (A549 cells): 2 ± 0.8%

COc1ccc(-c2nc(-c3cc(C(F)(F)F)cc(C(F)(F)F)c3)n(Cc3ccc(C(=O)NO)cc3)c2-c2ccc(OC)cc2)cc1 [Example 117, 4-((2-(3,5-bis(trifluoromethyl)phenyl)-4,5-bis(4-methoxyphenyl)-1H-imidazole-1-yl)methyl)-N-hydroxybenzamide]
cytotoxicity at 15 µM (HeLa cells): 40 ± 1.67% | cytotoxicity at 15 µM (A549 cells): 43 ± 0.52%

COc1ccc(-c2nc(-c3cc(C(F)(F)F)cc(C(F)(F)F)c3)n(Cc3ccc(C(N)=S)cc3)c2-c2ccc(OC)cc2)cc1 [Example 118, 4-((2-(3,5-bis(trifluoromethyl)phenyl)-4,5-bis(4-methoxyphenyl)-1H-imidazole-1-yl)methyl)benzothioamide]
cytotoxicity at 15 µM (HeLa cells): 50 ± 1.66% | cytotoxicity at 15 µM (A549 cells): 50 ± 0.41%

CNC(=O)c1ccc(Cn2c(-c3cc(C(F)(F)F)cc(C(F)(F)F)c3)nc(-c3ccc(OC)cc3)c2-c2ccc(OC)cc2)cc1 [Example 119, 4-((2-(3,5-bis(trifluoromethyl)phenyl)-4,5-bis(4-methoxyphenyl)-1H-imidazole-1-yl)methyl)-N-methylbenzamide]
cytotoxicity at 15 µM (HeLa cells): 90 ± 1.73% | cytotoxicity at 15 µM (A549 cells): 39 ± 0.76%
